Measurements reported in ChEMBL document CHEMBL1201862, “PubChem BioAssay data set” (2004).
Active and inactive are the calls of the source.

Columns and labels:
cells = settings: A549
Beta-galactosidase = Beta-galactosidase (Escherichia coli, UniProt Q8VNN2); test: Dose response counterscreen for EBI2 assay utilizing the enzyme, b-galactosidase.; assay type: functional
[1] = MITF Orthogonal Assay: SK-MEL-5 CTG Assay Measured in Cell-Based System Using Plate Reader - 2084-02_Inhibitor_Dose_DryPowder_Activity_Set7.; assay type: functional
[2] = MITF: Counter assay: A375 proliferation Measured in Cell-Based System Using Plate Reader - 2084-03_Inhibitor_Dose_DryPowder_Activity_Set8.; assay type: functional; settings: A-375
[3] = TRPM1 promoter luciferase reporter signal decrease, dose response, MITF inhibitor project, cell-based, SK-MEL-5, dry powder, set 8 (AID 624430); assay type: functional
[4] = biological target: Long-chain-fatty-acid--AMP ligase FadD28 (Mycobacterium tuberculosis, UniProt P9WQ59); test: Fluorescence polarization aasay to screen for inhibitors that compete for the binding of FadD28 to a bisubstrate Measured in Biochemical System Using Plate Reader - 2147-01_Inhibitor_Dose_CherryPick_Activity.; assay type: functional, Mycobacterium tuberculosis H37Rv
A549 = test: A549 cell toxicity, dose response, cytotoxicity control, plate reader, cherry-pick samples (AID 687028); assay type: functional, cell-based; settings: Homo sapiens
Vero = test: Vero cell toxicity, dose response, cytotoxicity control, plate reader, cherry-pick samples (AID 687020); assay type: functional, cell-based; settings: Chlorocebus sabaeus
[5] = BHK-21 cell cytotoxicity, cytotoxicity control for flavivirus guanylyltransferase probe project, secondary screen (AID 624078); assay type: functional
[6] = biological target: T1, Rac GTPase-activating protein 1 (Homo sapiens, UniProt Q9H0H5); test: MgcRacGAP GTPase-activating activity inhibitors, confirmation, biochemical, ADP Hunter fluorescence, primary and confirmatory (AID 624330); assay type: functional
T1 sequence (Q9H0H5 whole entry): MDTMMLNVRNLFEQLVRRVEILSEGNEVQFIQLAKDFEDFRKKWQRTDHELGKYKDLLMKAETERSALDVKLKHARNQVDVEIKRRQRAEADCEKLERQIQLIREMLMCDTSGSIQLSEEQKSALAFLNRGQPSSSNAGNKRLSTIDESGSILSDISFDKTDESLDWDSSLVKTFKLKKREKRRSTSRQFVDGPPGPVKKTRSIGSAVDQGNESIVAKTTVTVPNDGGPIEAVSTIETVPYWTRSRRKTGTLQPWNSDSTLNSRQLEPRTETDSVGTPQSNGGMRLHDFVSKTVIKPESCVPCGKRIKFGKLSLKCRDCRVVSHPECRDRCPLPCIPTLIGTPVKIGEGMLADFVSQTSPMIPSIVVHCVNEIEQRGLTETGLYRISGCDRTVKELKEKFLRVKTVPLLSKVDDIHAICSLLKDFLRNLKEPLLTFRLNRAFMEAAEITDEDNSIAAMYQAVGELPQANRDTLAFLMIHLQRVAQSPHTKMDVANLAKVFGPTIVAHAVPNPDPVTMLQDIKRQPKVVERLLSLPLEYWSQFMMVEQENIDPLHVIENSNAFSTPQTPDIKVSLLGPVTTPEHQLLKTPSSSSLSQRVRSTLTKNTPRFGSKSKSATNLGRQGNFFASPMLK

Nonstructural protein 1 = Nonstructural protein 1 (Influenza A virus, UniProt Q194T2); assay type: functional, Influenza A virus (A/California/07/2009(H1N1))
[7] = HeLa cell cytotoxicity, dose response, cytotoxicity control for MgcRacGAP inhibitor project (AID 624300); assay type: functional
[8] = biological target: Photoreceptor-specific nuclear receptor (Homo sapiens, UniProt Q9Y5X4); assay type: functional, cell-based;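 note: CHO-S cells with Gal4-NCOR and VP16-NR2E3 two-hybrid luciferase reporter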
[9] = biological target: T2, DNA repair protein RAD52 homolog (Homo sapiens, UniProt P43351); assay type: functional, biochemical
T2 sequence (P43351 whole entry): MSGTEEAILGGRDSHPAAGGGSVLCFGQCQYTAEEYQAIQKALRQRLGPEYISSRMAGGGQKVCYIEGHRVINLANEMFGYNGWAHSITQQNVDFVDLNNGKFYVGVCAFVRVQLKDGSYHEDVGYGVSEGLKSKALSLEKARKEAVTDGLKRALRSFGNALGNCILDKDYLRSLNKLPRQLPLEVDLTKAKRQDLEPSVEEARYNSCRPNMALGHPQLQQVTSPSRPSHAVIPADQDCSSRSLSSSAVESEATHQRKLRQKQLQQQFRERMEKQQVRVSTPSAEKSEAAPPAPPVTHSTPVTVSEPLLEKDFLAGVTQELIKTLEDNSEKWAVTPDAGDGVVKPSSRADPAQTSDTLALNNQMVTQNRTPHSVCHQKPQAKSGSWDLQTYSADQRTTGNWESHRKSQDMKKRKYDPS

[10] = human group III sPLA2 inhibitors, dose response, biochemical, QFRET, IC50 (AID 743457);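 note: green fluorescence rise as the enzyme cleaves BODIPY PC-A2 in liposomes; potency for inhibition of the enzyme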
Paired box protein Pax-8 = Paired box protein Pax-8 (Homo sapiens, UniProt Q06710); test: inhibitors of PAX8-driven TPO luciferase reporter, dose response, RMG-I cells, cherry-pick (AID 687027); assay type: functional, cell-based;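 note: luciferase reporter driven by Pax8 target thyroperoxidase promoter measured by SteadyGlo luminescence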
[11] = cytotoxicity in OVCAR8 ovarian cancer cells, dose response, PAX8 project, cell-based, plate reader, dry powder samples (AID 743197); assay type: functional; settings: OVCAR-8
[12] = inhibitors of CMV-promoter luciferase reporter, dose response, counter-screen for Pax8 inhibitor project, cell-based, HEK293, luminescence, dry powder (AID 743020); assay type: functional
[13] = NIH:OVCAR-3 ovarian cancer cell cytotoxicity, dose response, PAX8 inhibitor project, plate reader, dry powder samples (AID 743044); assay type: functional, cell-based
[14] = Counterscreen for antagonists of the human trace amine associated receptor 1 (hTAAR1): Fluorescence-based cell-based high throughput dose response assay to identify nonselective Ga16 antagonists.; assay type: functional
[15] = biological target: T3, Trace amine-associated receptor 1 (Homo sapiens, UniProt Q96RJ0); test: Counterscreen for antagonists of the human trace amine associated receptor 1 (hTAAR1): Fluorescence-based cell-based high throughput dose response assay to identify TAAR1 Agonists.; assay type: functional
T3 sequence (Q96RJ0 whole entry): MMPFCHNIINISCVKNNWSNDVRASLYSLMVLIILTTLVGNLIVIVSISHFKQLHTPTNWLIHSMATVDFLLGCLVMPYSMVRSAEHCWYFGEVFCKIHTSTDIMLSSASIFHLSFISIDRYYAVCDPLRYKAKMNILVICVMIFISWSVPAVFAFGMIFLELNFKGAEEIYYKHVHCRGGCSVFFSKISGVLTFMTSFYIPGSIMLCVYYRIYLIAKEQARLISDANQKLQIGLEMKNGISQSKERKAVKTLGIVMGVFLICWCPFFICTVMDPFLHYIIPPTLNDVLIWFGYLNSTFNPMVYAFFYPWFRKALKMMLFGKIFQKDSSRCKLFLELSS

[16] = Counterscreen for […] of the human trace amine associated receptor 1 (TAAR1): Fluorescence-based cell-based high throughput dose response assay to identify nonselective Ga16 agonists.; assay type: functional
[17] = biological target: T3, Trace amine-associated receptor 1; test: Fluorescence-based cell-based high throughput dose response assay to identify antagonists of the human trace amine associated receptor 1 (TAAR1).; assay type: functional
[18] = cytotoxicity in OV-90 ovarian cancer cells, dose response, PAX8 inhibitor project, cell-based, plate reader, dry powder, SA8 (AID 743149); assay type: functional
[19] = IGROV1 ovarian cancer cell cytotoxicity, dose response, PAX8 inhibitor project, plate reader, dry powder samples (AID 743043); assay type: functional, cell-based; settings: IGROV-1
[20] = cytotoxicity in COV434 cells, dose response, cytotoxicity control for PAX8 inhibitor project, cell-based, plate reader, dry powder, SA7 (AID 743145); assay type: functional
[21] = cytotoxicity dependent on PAX8, dose response, cell-based, plate reader, dry powder (AID 743049); assay type: functional
[22] = cytotoxicity toward DRD oncogenic fibroblasts, dose response, cell-based, non-viral oncogenic, luminescence (AID 1934); assay type: functional; settings: Homo sapiens
BJ [23] = test: cytotoxicity toward BJ-TERT-LT-ST fibroblasts, dose response, cell-based, RAS-independent, luminescence (AID 1935); assay type: functional; settings: Homo sapiens;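 note: BJ fibroblasts immortalized with TERT plus LT and ST oncogenes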
[24] = HepG2 cell cytotoxicity, dose response, cytotoxicity control for Shn3 inhibitor project, CellTiter-Glo, cherry-picked (AID 624134); assay type: functional, cell-based
[25] = Shn3 3'UTR reporter inhibitors, dose response, cell-based, Clone20 osteoblasts, firefly luciferase, cherry-picked (AID 624132); assay type: functional;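 note: firefly luciferase luminescence from reporter carrying the Shn3 3'UTR in osteoblasts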
[26] = control 3'UTR Renilla luciferase suppression, dose response, counter-screen for Shn3 inhibitor project, cell-based, Clone20-Shn3RL, cherry-picked (AID 624133); assay type: functional
[27] = biological target: Disintegrin and metalloproteinase domain-containing protein 17 (Homo sapiens, UniProt P78536); test: ADAM17 protease inhibitors, dose response, counter-screen for ADAM10 exosite inhibitor project, biochemical, quenched FRET substrate (AID 743253)
BJ [28] = test: cytotoxicity toward BJ-TERT fibroblasts, dose response, cell-based, RAS-independent, luminescence (AID 1933); assay type: functional; settings: Homo sapiens
[29] = ADAM10 inhibitors, peptide cleavage, dose response, biochemical, QFRET (AID 743254);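 note: ADAM10 enzyme with the DM2 quenched FRET peptide as substrate; EDANS fluorescence gain as the protease cuts the substrate; inhibitor potency against ADAM10 proteolytic activity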
BJ [30] = test: cells; assay type: functional, cell-based; settings: Homo sapiens

Sequence of Nonstructural protein 1 (Q194T2 whole entry): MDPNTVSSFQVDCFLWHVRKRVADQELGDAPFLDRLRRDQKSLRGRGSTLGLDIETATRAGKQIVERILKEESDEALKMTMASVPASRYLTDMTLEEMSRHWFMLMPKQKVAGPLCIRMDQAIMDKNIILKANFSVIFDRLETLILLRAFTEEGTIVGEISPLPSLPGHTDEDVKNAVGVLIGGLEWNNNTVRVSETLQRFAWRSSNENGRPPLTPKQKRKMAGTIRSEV
Sequence of Photoreceptor-specific nuclear receptor (Q9Y5X4 whole entry, the tested form may be a part): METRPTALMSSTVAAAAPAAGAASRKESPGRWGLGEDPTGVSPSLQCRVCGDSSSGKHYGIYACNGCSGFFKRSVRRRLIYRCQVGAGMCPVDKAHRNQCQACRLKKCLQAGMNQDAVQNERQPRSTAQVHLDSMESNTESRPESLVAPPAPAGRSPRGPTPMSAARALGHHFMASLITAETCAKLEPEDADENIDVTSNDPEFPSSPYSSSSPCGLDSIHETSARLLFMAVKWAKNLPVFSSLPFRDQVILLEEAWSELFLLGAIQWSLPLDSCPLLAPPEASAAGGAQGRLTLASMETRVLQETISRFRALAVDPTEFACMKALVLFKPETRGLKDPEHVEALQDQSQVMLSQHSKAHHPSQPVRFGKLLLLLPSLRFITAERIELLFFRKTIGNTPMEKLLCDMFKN
Sequence of Beta-galactosidase (Q8VNN2 whole entry): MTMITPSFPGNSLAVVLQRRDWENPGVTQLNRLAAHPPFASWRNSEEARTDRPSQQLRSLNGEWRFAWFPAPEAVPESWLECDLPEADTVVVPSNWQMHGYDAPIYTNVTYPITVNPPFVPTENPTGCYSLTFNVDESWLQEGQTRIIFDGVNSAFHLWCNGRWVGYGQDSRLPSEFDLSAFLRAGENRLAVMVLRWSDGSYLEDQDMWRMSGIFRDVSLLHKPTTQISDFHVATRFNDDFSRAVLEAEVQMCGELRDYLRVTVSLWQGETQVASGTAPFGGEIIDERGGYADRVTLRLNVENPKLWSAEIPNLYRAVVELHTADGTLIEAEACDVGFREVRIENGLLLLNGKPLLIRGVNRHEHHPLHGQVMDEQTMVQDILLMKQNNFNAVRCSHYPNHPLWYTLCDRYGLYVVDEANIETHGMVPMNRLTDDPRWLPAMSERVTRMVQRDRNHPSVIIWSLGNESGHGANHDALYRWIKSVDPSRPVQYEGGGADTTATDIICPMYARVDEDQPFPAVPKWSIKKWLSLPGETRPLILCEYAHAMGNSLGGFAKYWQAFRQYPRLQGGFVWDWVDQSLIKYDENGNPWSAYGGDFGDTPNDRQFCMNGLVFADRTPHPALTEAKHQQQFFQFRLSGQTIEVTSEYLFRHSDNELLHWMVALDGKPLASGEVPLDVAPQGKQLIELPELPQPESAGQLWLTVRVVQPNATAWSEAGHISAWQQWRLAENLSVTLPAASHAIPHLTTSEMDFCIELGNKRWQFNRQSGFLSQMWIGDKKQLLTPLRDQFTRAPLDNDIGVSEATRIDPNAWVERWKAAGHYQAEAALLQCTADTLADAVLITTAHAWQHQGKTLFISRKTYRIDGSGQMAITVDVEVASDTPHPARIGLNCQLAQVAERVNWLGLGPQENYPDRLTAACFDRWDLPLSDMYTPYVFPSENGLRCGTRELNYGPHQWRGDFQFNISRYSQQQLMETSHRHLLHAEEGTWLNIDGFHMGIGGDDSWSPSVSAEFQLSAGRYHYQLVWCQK
Sequence of Paired box protein Pax-8 (Q06710 whole entry): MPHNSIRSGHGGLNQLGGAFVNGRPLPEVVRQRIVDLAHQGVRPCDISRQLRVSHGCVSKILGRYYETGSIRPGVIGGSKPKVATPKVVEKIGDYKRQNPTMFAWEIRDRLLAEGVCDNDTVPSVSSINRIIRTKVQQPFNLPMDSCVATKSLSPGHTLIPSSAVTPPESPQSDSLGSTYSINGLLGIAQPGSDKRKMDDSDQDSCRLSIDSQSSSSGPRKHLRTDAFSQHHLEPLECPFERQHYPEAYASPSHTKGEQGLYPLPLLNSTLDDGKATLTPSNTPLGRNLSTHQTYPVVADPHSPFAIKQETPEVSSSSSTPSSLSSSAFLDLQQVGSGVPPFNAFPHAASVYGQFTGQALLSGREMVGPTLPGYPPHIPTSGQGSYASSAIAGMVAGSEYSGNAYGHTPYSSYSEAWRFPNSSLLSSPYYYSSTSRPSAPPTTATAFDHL
Sequence of Long-chain-fatty-acid--AMP ligase FadD28 (P9WQ59 whole entry): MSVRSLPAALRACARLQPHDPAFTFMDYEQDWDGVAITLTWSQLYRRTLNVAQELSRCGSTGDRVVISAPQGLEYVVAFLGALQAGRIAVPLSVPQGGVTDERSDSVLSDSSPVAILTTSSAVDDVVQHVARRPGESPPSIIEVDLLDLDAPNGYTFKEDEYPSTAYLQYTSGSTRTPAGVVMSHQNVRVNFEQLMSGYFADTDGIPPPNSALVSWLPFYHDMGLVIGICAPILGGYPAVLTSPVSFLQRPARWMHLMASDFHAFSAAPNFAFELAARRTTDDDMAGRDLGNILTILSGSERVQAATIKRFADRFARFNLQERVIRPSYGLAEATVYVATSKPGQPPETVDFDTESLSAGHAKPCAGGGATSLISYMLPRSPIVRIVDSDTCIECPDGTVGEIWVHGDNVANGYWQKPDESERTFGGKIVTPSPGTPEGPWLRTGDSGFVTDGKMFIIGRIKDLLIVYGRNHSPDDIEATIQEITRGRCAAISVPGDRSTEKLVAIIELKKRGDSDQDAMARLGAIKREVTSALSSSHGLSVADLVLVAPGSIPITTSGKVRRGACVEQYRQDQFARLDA
Sequence of Disintegrin and metalloproteinase domain-containing protein 17 (P78536 whole entry, the tested form may be a part): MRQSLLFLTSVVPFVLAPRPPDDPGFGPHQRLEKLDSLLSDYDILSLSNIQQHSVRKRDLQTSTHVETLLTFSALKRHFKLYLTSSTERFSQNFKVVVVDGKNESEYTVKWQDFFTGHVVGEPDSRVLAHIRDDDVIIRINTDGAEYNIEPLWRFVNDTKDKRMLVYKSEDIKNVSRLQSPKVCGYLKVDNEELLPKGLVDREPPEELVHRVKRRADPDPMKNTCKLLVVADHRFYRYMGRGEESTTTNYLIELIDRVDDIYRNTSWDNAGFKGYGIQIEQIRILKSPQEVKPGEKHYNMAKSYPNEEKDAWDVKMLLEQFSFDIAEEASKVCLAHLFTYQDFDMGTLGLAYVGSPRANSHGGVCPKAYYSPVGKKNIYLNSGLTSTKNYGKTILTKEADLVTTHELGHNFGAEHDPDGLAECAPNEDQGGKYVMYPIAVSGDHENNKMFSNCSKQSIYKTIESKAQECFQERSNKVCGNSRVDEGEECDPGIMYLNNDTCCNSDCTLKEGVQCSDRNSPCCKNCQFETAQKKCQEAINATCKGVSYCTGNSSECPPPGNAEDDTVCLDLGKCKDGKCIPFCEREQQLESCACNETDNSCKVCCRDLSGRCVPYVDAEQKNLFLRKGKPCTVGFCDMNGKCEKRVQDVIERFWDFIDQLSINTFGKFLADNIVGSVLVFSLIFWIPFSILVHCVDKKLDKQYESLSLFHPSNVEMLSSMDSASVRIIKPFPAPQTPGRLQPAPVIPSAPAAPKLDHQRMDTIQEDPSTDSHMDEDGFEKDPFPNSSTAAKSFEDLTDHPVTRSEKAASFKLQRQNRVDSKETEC

In the case of `CC(=O)c1cccc(-c2ccnc3c2CC(C(=O)NCc2ccc(F)c(F)c2)O3)c1` (configuration not stated), the AC50 (cells) is reported as 3.92 µM (active).
For `CCOC(=O)C1CCN(C2=NC(=O)/C(=C/c3ccc(Cl)cc3)S2)CC1`, the IC50 (Beta-galactosidase) was > 80 µM (inactive).
With `Cc1cccc(NC2=CC(=O)c3ccccc3C2=O)c1` the AC50 [1] was 0.66 µM (active), the AC50 [2] was > 70 µM (inactive) and the AC50 [3] was 18.9 µM (active).
With `COc1cccc(-n2nnnc2SCC(=O)Nc2cccc(C)n2)c1` the AC50 [4] was 50.1 µM (active).
With `Cc1cccc(C(=O)N2CCC(=O)N([C@H](COCc3ccc(Cl)cc3)Cc3ccccc3)CC2)c1` the AC50 (A549) was 28.5 µM (active) and the AC50 (Vero) was 33.6 µM (active).
In the case of `O=S(=O)(Nc1cc(Cl)c(O)c2ccccc12)c1ccc(F)cc1`, the CC50 [5] is reported as 12.5 µM (active).
With `CN(C)c1ccc(/C=C/c2cc[n+](C)c3ccccc23)cc1` the IC50 [6] was 38.5 µM (active), the IC50 (Nonstructural protein 1) was 10.6 µM (active) and the CC50 [7] was 54.1 µM (active). The IC50 [8] was 7.07 µM (active), the AC50 [9] was 1.23 µM (active) and the IC50 [10] was 30.1 µM (inactive).
In the case of `C[C@H]1CN([C@@H](C)CO)S(=O)(=O)c2ccc(C#CC3CCCC3)cc2O[C@@H]1CN(C)Cc1cccnc1`, the AC50 (Paired box protein Pax-8) is reported as 14.4 µM (active), the AC50 [11] is reported as > 70 µM (inactive) and the AC50 [12] is reported as 39.4 µM (active). The AC50 [13] was 37.1 µM (active).
In the case of `O=C(CCSCc1cccc(F)c1)NCCc1ccccc1`, the IC50 [14] is reported as > 29.9 µM (inactive), the EC50 [15] is reported as > 29.9 µM (inactive) and the EC50 [16] is reported as > 29.9 µM (inactive). For the same compound, the IC50 [17] was 7.43 µM (active).
In the case of `N#C[C@H]1N[C@H](CO)[C@@H]1c1ccc(C#Cc2ccccc2F)cc1`, the AC50 [18] is reported as > 70 µM (inactive), the AC50 [19] is reported as 45.2 µM (active) and the AC50 [20] is reported as > 70 µM (inactive). For the same compound, the AC50 [21] was 30.1 µM (active) and the AC50 [13] was 49.8 µM (active).
With `COc1ccc(C)c2sc(N(CCCN(C)C)C(=O)c3ccc(S(=O)(=O)N4CCc5ccccc5C4)cc3)nc12` the EC50 [22] was 4.25 µM (active), the EC50 (BJ [23]) was 2.13 µM (inconclusive) and the AC50 [24] was 2.98 µM (active). The AC50 [25] was 4.4 µM (active), the AC50 [26] was 5.51 µM (active) and the IC50 [27] was > 69.5 µM (inactive). For the same compound, the EC50 (BJ [28]) was 1.48 µM (inconclusive), the IC50 [29] was > 69.5 µM (inactive) and the EC50 (BJ [30]) was 5.65 µM (active).
